Test: Percutaneous absorption study on a pig skin model
Assay type: in vitro ADME
Details: arjunolic acid in combination with 1,2-pentanediol in cosmetic formulation vs. formulation without 1,2-pentanediol; FIG. 2
Description: In practice, the study was performed in accordance with a current protocol, as described for example in S. Richert, A. Schrader, K. Schrader, Int. J. Cosmet. Sci. 2003, 25, 5-13.

bioavailability (skin penetration) as a function of solvent: increase in bioavailability
SMILES: CC1(C)CC[C@]2(C(=O)O)CC[C@]3(C)C(=CC[C@@H]4[C@@]5(C)C[C@@H](O)[C@H](O)[C@@](C)(CO)[C@@H]5CC[C@]43C)[C@@H]2C1 [arjunolic acid]

— patent publication US20140342025A1, “ARJUNOLIC ACID FOR INCREASING SEBUM PRODUCTION” (EVONIK INDUSTRIES AG, priority 2011, published 2014)
